Measurements: US20240315994A1, “SMALL MOLECULE MODULATORS OF FERROPTOSIS” (ARPEGGIO BIOSCIENCES, INC., priority 2021, published 2024)

Key:
[1] = test system: HT-1080 fibrosarcoma cells; test: HT-1080 viability dose response in presence or absence of ferrostatin-1 or liproxstatin-1; format: cell-based; details: HT-1080 cells, 100 μM to 100 nM, 48 hours, with/without 1.5 μM ferrostatin-1
Method: To determine whether the reduction in cell viability by the compounds identified in FIG. 1 is driven by induction of ferroptosis, we performed dose response curves for each compound in the presence or absence of ferrostatin-1 or liproxstatin-1, which prevent ferroptosis by functioning as radical trapping antioxidants at cellular membranes. Briefly, HT-1080 fibrosarcoma cells were plated 24 hours prior to treatment with a range of concentrations of each inhibitor compound ranging from 100 μM to 100 nM in the presence or absence of 1 μM liproxstatin-1 or 1.5 µM ferrostatin-1. Cell Titer Glo® was used to read out cell viability after 48 hours compound exposure. Data was collected in triplicate.
Compounds from the Enamine covalent inhibitor library with similar structures to compounds 8216, 6666 or 1816 were further screened for inducing cell death via ferroptosis. Briefly, HT-1080 fibrosarcoma cells were plated on black-sided clear bottom plates 24 hours prior to treatment, with or without the addition of 2× ferrostatin-1, which inhibits the process of ferroptosis and rescues cells from undergoing this form of cell death. Compounds were diluted in DMSO and media then added to the cells for a total of 24 hours at which point cell viability was read out via Cell Titer Glo. Compounds were tested at […] ranging from 50 μM to 5 nM at half log dilutions.
FIG. 14 is a panel of plots 1400 showing relative viability of HT-1080 fibrosarcoma cells exposed to 15 inhibitor compounds with similar structures to 8216, 6666, or 1816 tested over a range of concentrations from 50 μM to 5 nM at half log dilutions in the presence of (red line) and absence of (black line) 1.5 μM ferrostatin-1. Ferrostatin-1 is a lipophilic antioxidant which inhibits the process of ferroptosis and rescues cells from undergoing this form of cell death. The black line is the relative HT-1080 fibrosarcoma cell viability in the absence of ferrostatin-1 and the red line is the relative HT-1080 fibrosarcoma cell viability in the presence of 1.5 μM ferrostatin-1. HT-1080 fibrosarcoma cells were plated on side-blackened, clear bottom plates 24 hours prior to treatment, with or without the addition of 2× ferrostatin-1. Each compound was diluted in DMSO and media and then added to the cells for a total of 24 hours, at which point cell viability was read out via Cell Titer Glo.

[2] = test system: 786-O Renal Clear Cell Carcinoma cells; test: Bodipy-C11 lipid peroxidation staining in 786-O cells; format: cell-based; details: for lipid peroxidation (Bodipy-C11 staining): 8216 6.25 μM 2 h, 1816 25 μM 1 h, 3362 12.5 μM 2 h, 0973 50 μM 2 h, 1962 50 μM 2 h
Method: To validate that the five ferroptosis-inducing compounds identified in FIG. 3 do cause lipid peroxidation, we used Bodipy-C11 staining in 786-O Renal Clear Cell Carcinoma cells to visualize using microscopy the presence (or absence) of oxidized lipids. Biodipy-C11 is a dye that traffics to lipid membranes and harbors a fluorophore that emits at different wavelengths depending on its oxidation status. Briefly, 786-O Renal Clear Cell Carcinoma cells were plated 24 hours prior to treatment with each of the five ferroptosis-inducing compounds (8216, 1816, 3362, 1962, and 0973) for one or two hours. DMSO was used as a control treatment. Following the treatment period, Hoechst stain (10 μM; a nuclear counterstain) and Bodipy-C11 (200 μM) were added to the cells for 30 minutes and then the cells were imaged using the Opera Phenix high content screening microscope.
FIG. 4B is a panel of plots 410 showing fluorescence images of Biodipy-C11 staining of cells treated with compound 8216 and the controls RSL3 and sodium arsenite. Briefly, 786-O Renal Clear Cell Carcinoma cells were plated 24 hours prior to treatment with compound 8216 and the controls RSL3 and sodium arsenite for 1 hour with and without 1.5 μM of ferrostatin-1. Bodipy C-11 undergoes a shift in emission when lipids become oxidized, non-oxidized lipids are represented in orange and oxidized lipids are green; Hoescht was included as nuclear stain to represent cell bodies.

[3] = biological target: T1, recombinant GPX4 protein (Homo sapiens, UniProt P36969); test: GPX4 inhibitor screening assay (Cayman Chemical cat #701880); format: biochemical; details: for GPX4 inhibitory capacity in vitro: 25 μM, one hour incubation with recombinant GPX4; for EC50: stated with the FIG. 6/FIG. 7 binding and GPX4 enzymatic results, assay behind the EC50 not named, read-out: EC50 (half maximal effective concentration)
T1 construct: purchased Cayman Chemical SO960203
T1 sequence (P36969 1-197): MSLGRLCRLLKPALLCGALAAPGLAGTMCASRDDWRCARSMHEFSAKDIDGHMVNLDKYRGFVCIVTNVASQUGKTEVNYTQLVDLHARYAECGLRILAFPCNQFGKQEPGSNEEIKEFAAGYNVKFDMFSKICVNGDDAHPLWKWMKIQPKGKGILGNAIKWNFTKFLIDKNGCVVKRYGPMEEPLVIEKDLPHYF
Method: To determine whether the five ferroptosis-inducing compounds (1816, 8216, 3362, 1962, and 0973) inhibit GPX4 enzymatic activity in vitro, we used a commercially available GPX4 inhibitor screening kit (Cayman Chemical cat #701880). This assay measures a compound's ability to prevent cumene hydroperoxide reduction by recombinant GPX4 protein. Briefly, the five ferroptosis-inducing compounds (25 μM) were incubated with recombinant GPX4 protein for one hour before being run in the Cayman Chemicals GPX4 inhibitor screening assay according to manufacturer's recommendations. The assay read out is a change in absorbance between NADPH and NADP. ML162 (25 μM) and RSL3 (25 μM) were used as positive control compounds.
An enzymatic assay that measures the reduction of […] by GPX4 was used to test the ability of compounds 8216, 6666, 8147, and 3793 to inhibit the activity of GPX4. The enzymatic assay was performed using a commercially available kit (Cayman cat #701880). The compounds were tested at 8 concentrations in duplicate with the compound being diluted following manufacturer's instructions. The enzymatic reaction was allowed to continue for 1 hour prior to reading out the kinetic shift in absorbance that occurs as result of GPX4 […].

| SMILES | cell death and rescue by ferrostatin-1 [1] | lipid peroxidation (Bodipy-C11 staining) [2] | GPX4 inhibitory capacity in vitro [3] | EC50 [3] [µM] | Bodipy C-11 emission shift (lipid oxidation) ([2]; 1 hour, with and without 1.5 μM ferrostatin-1) |
| --- | --- | --- | --- | --- | --- |
| CCCCCN(C(=O)CCl)c1c(N)n(CCCC)c(=O)[nH]c1=O [Compound 1816] | cell death that was rescued by the addition of the antioxidant ferrostatin-1 | some degree of lipid peroxidation was observed | do not inhibit GPX4 enzymatic activity in vitro |  |  |
| O=C(CCl)N1c2ccccc2OC[C@@H]1c1ccccc1 [Compound 1962] | cell death that was rescued by the addition of the antioxidant ferrostatin-1 | some degree of lipid peroxidation was observed | exhibit potent GPX4 inhibitory capacity | ~0.44 |  |
| CCOc1ccc(C[C@@H]2c3cc(OCC)c(OCC)cc3CCN2C(=O)CCl)cc1OCC [Compound 3362] | cell death that was rescued by the addition of the antioxidant ferrostatin-1 | some degree of lipid peroxidation was observed | do not inhibit GPX4 enzymatic activity in vitro |  |  |
| O=C(CCl)N(Cc1ccc(F)cc1)C1CCCCC1 [Compound 8216] | cell death that was rescued by the addition of the antioxidant ferrostatin-1 | some degree of lipid peroxidation was observed | exhibit potent GPX4 inhibitory capacity | ~0.1 | shift in emission color from orange to green |
